Data set [1] deals with HT-22 cells. The note with it: 20 mM Glu, 24 h.
Method: HT-22 cells were cultured in DMEM medium with 10% fetal bovine serum (Gibco), 1% penicillin, and streptomycin (Gibco) at 37 °C. HT-22 cells were seeded at a density of 1 × 10^4 cells per well in 96-well plates and cultured in DMEM medium containing 10% fetal bovine serum and 1% penicillin–streptomycin at 37 °C with 5% CO2.
Details of data set [2]: method as in number not printed ("It was reported"). The note with it: linear dipeptide; ref number not printed ("It was reported"); cited from earlier work.
Details of data set [3]: method as in number not printed ("A study in humans"). The note with it: humans; ref number not printed ("A study in humans"); cited from earlier work.
On the set-up of data set [4]: method as in number not printed ("the literature reports"). The note with it: mice; ref number not printed ("the literature reports"); cited from earlier work.
A short description of data set [5]: Concentrations of CDPs in stomach, small intestine and cecum contents after oral DHG (targeted spatiotemporal metabolomics). It is filed as in vivo, C57 mice. Here is the method: The supernatant was dried using N2.
For gastrointestinal content analysis, freeze-dried powders (1 mg each) of stomach, small intestine, and cecum contents collected over the 0–24 h postadministration period were accurately weighed. The samples were extracted using the same pretreatment procedure as applied for DHG, namely, ultrasonication with 75% methanol for 30 min at room temperature, followed by centrifugation (13,500 rpm, 10 min). The supernatants were collected, dried under nitrogen, and reconstituted in 75% methanol for LC–MS analysis. Quantitation was performed against the 12-point calibration curves established above, ensuring consistency with the DHG quantitation workflow. Samples from different time points were analyzed individually to characterize the temporal distribution of CDPs within each gastrointestinal compartment.

The test system of data set [6] is Glu-induced HT-22 cells. Description: Neuroprotection in Glu-injured HT-22 cells (CCK-8 cell viability). The following applies: for cell viability in Glu-injured HT-22 cells: 50 μM (stated for cyclo(Hyp-Ala)), 4 h pretreatment, then 20 mM Glu 24 h, model group 40.759 ± 1.939%; for Cell viability(%) in Glu-induced HT-22 cells: Glu-only model (0 μM) 40.759±1.939.
In data set [7] the test system is H2O2-induced HT-22 cells. The data set can be described thus: Neuroprotection in H2O2-injured HT-22 cells (CCK-8 cell viability). The note with it: compound 50 μM; H2O2-only model (0 μM) 48.645±0.347.
Data set [8] is described as follows: Serum pharmacokinetics of CDPs after oral administration of DHG (targeted LC-MS, noncompartmental analysis). The note with it: for C max / AUC0–24h / T max: serum, mice.
A short description of data set [9]: FBMN analysis of short peptides in small intestine contents and serum after oral DHG. The note with it: serum, time points 0.5-4 h after oral DHG.
For data set [10] the following is noted: mouse, in vivo, po, 1000 mg/kg.
The conditions of data set [11]: mouse, in vivo, po.

Values joined by “and” are separate entries in the source; they are usually repeats but may differ in a detail not shown here. Equal entries are not always repeated. Where two headings read alike, the source gives them in different places. Peptide text beside a SMILES is read from it.

Regarding `N[C@@H](CCC(=O)O)C(=O)O` [Glu, Glutamate], in data set [1], the “HT22 cell viability after Glu exposure” value is reported as 40–60%.

As to `NCC(=O)N1CCC[C@H]1C(=O)O` [Gly-Pro] (H-Gly-Pro-OH), in data set [2], the “time to decrease to a negligible level after oral administration” value is at most 1 h. Further, the “T max, C max, and AUC0–4h compared with cyclo(Gly-Pro)” value in [3] is “lower”.

In the case of `O=C(O)[C@@H]1C[C@@H](O)CN1C(=O)[C@@H]1CCCN1` [Pro-Hyp] (HELM PEPTIDE1{P.[Hyp]}$$$$V2.0), the “time to drop to basal levels” value in data set [4] is at most 3 h.

Turning to `O=C1NCC(=O)N2CC(O)CC12` (stereo not drawn) [cyclo(Hyp-Gly), cyclo(Gly-Hyp)], the “concentration in the cecum” value in data set [5] (cecum contents at 8 h) was 358.966 ng/g. Moreover, in data set [5], the “cecum concentration at 8 h compared with peak levels in stomach and small intestine” value is “surpassed the peak levels observed in the stomach and small intestine”. The “concentration in the small intestine” value in data set [5] (small intestine contents at 1 h) is on record as 354.578 ng/g. Moreover, the “concentration in the stomach” value in data set [5] (stomach contents at 0.5 h) is reported as 265.229 ng/g. For the same molecule, in [6], the “cell viability in Glu-injured HT-22 cells” value came to 63.703 ± 1.518 % cell viability. Moreover, the results for the “Cell viability(%) in Glu-induced HT-22 cells” value in [6] (compound 25 μM) and in [6] (compound 50 μM) were 61.970±4.223% and 53.703±1.518%, respectively. Further, the “Cell viability(%) in H2O2-induced HT-22 cells” value in data set [7] is 62.961±1.166%. Besides, the C max in data set [8] (oral DHG) came out at 684 µg/L; in data set [8] (oral DHG 1000 mg/kg), 683.7471 µg/L. Also, the “AUC0–24h” value in [8] (oral DHG 1000 mg/kg) is 7.371695 µg·h/mL and 7.3716951 µg·h/mL. Besides, in data set [8] (oral DHG 1000 mg/kg), the T max came out at 2 h.

With `O=C1N[C@@H](Cc2ccccc2)C(=O)N2C[C@@H](O)C[C@@H]12` [cyclo(Phe-Hyp)], in data set [5], the “cecum concentration at 8 h compared with peak levels in stomach and small intestine” value is “surpassed the peak levels observed in the stomach and small intestine”. In data set [6], the “cell viability in Glu-injured HT-22 cells” value was determined as 60.206 ± 4.409 % cell viability. For the same molecule, the “Cell viability(%) in Glu-induced HT-22 cells” value in [6] (compound 25 μM) is given as 56.084±2.124%. Besides, in [7], the “Cell viability(%) in H2O2-induced HT-22 cells” value was found to be 63.241±3.395%. Also, in [9], the “time detected in serum (FBMN)” value lay within 0.5 to 4 h. Further, in [8] (oral DHG 1000 mg/kg), the “AUC0–24h” value was 0.2632271 µg·h/mL, the C max amounted to 51.2931 µg/L and the T max stood at 1 h.

`O=C1[C@@H]2C[C@@H](O)CN2C(=O)[C@@H]2CCCN12` [cyclo(Pro-Hyp)]: the “cecum concentration at 8 h compared with peak levels in stomach and small intestine” value in [5] is “surpassed the peak levels observed in the stomach and small intestine”. Besides, the “cell viability in Glu-injured HT-22 cells” value in data set [6] is listed as 60.071 ± 3.101 % cell viability. The “Cell viability(%) in Glu-induced HT-22 cells” value in [6] (compound 25 μM) was 53.105±7.712%. For the same molecule, the “Cell viability(%) in H2O2-induced HT-22 cells” value in data set [7] amounted to 67.606±2.468%. Further, in [8] (oral DHG 1000 mg/kg), the “AUC0–24h” value is 2.1266252 µg·h/mL, the C max is 408.1371 µg/L and the T max came out at 1 h. For the same molecule, the “time remained detectable in serum” value in data set [8] (serum/blood after oral DHG, sampled to 24 h) is reported as 24 h.

As to `O=C1N[C@@H](Cc2ccccc2)C(=O)N2CCC[C@@H]12` [cyclo(Pro-Phe)], in data set [10], the “AUC0–24h” value is 19.8164 µg·h/L, the C max was 11.0670 µg/L and the T max stood at 30 min. In data set [11], the “Peptide signal (feature intensity) in the small intestine, 30 min” value was found to be 2.06E+05; the “Peptide signal (feature intensity) in the small intestine, 60 min” value was 0.00E+00; the “Peptide signal (feature intensity) in the small intestine, 120 min” value is given as 2.49E+05; the “Peptide signal (feature intensity) in the small intestine, 240 min” value is given as 2.18E+05.

Values taken from paper PMC12616683, “In Vivo Atlas of Neuroprotective Cyclic Dipeptides Derived from Food Gelatin Using Peptidomics and Feature-Based Molecular Networking” (Journal of Agricultural and Food Chemistry, 2025).
